What was measured:
Experiment in all cases: KinomeScan profiling
Type in all cases: binding
SLK = target: T1, SLK (Homo sapiens, UniProt Q9H2G2); conditions: read-out: % control
T1 construct: purchased KinomeScan® (panel service)
Method in brief: (§1)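 Luminescence (RLU) was converted to percent of control, with DMSO set as 100% and a reference compound as 0%. Test compounds were run at 1 μM against 468 kinases. Kinases showing below 35% of control were scored as bound.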

PIM1 = target: T2, PIM1 (Homo sapiens, UniProt P11309); conditions: PIM1, 1 μM; read-out: % control
T2 construct: purchased KinomeScan® (panel service)
T2 sequence (P11309 whole entry): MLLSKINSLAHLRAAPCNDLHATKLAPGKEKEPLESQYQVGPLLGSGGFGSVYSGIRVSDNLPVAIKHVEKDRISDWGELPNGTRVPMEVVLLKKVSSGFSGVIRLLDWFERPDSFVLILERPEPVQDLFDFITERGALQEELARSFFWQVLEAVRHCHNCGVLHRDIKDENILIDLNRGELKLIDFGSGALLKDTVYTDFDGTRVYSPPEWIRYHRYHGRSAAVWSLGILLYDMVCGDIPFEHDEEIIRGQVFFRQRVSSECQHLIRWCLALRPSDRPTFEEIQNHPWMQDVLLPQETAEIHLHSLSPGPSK
Method in brief: as §1

EGFR(L747-T751del, Sins) = EGFR(L747-T751del, Sins) (Homo sapiens, UniProt P00533, DEL747-750/T751S); conditions: read-out: % control
Sequence of EGFR(L747-T751del, Sins) (P00533 with tags, fused parts or gaps DEL747-750/T751S limits assumed): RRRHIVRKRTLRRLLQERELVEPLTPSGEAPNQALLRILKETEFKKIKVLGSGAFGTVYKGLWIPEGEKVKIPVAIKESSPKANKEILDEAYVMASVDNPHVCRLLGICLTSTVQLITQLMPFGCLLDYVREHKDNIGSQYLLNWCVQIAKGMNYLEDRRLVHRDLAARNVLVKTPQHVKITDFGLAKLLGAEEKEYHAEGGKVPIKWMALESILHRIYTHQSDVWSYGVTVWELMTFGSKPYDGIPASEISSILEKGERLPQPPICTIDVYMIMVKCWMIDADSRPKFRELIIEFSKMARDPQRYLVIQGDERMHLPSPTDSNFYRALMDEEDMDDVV
Method in brief: as §1

MEK6 = target: T3, MEK6 (Homo sapiens, UniProt P52564); conditions: MEK6, 1 μM; read-out: % control
T3 sequence (P52564 1-334): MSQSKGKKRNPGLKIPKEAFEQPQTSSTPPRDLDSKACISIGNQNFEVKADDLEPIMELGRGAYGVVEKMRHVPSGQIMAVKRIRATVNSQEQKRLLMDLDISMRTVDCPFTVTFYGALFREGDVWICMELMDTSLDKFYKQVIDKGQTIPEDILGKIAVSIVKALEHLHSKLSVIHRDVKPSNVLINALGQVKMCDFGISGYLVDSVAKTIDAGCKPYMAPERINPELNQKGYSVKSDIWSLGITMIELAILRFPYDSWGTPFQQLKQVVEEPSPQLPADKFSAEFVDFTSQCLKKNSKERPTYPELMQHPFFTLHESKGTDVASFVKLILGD
Method in brief: as §1

PIP5K2B = target: T4, PIP5K2B (Homo sapiens, UniProt P78356); conditions: read-out: % control
T4 construct: purchased KinomeScan® (panel service)
T4 sequence (P78356 1-416): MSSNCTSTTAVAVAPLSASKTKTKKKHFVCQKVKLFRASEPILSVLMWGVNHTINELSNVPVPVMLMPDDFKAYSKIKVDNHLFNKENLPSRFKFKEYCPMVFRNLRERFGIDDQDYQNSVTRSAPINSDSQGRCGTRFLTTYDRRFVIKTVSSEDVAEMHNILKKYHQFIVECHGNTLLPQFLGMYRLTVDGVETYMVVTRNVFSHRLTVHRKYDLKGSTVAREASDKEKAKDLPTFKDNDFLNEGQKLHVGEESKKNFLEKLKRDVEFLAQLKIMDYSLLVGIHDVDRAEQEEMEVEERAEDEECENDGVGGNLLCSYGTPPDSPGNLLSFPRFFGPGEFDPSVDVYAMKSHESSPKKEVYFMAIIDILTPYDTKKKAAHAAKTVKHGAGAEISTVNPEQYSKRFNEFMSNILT
Method in brief: as §1

ULK3 = target: T5, ULK3 (Homo sapiens, UniProt Q6PHR2); conditions: ULK3, 1 μM; read-out: % control
T5 sequence (Q6PHR2 1-472): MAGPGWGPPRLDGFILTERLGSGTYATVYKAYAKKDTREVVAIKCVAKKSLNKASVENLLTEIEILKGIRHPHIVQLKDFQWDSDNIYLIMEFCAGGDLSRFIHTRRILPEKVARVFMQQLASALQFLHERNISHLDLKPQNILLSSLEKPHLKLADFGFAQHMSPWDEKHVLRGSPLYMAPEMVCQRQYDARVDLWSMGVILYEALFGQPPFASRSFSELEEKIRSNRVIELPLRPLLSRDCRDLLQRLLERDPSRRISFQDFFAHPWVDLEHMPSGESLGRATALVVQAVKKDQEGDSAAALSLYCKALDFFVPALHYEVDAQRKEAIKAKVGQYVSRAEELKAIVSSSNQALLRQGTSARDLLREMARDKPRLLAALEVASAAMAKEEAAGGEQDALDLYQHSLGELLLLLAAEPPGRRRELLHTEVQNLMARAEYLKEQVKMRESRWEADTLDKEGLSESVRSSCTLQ
Method in brief: as §1

SYK = target: T6, SYK (Homo sapiens, UniProt P43405); conditions: read-out: % control
T6 construct: purchased KinomeScan® (panel service)
Method in brief: as §1

MAP3K1 = MAP3K1 (Homo sapiens, UniProt Q13233); conditions: MAP3K1, 1 μM; read-out: % control
Sequence of MAP3K1 (Q13233 whole entry): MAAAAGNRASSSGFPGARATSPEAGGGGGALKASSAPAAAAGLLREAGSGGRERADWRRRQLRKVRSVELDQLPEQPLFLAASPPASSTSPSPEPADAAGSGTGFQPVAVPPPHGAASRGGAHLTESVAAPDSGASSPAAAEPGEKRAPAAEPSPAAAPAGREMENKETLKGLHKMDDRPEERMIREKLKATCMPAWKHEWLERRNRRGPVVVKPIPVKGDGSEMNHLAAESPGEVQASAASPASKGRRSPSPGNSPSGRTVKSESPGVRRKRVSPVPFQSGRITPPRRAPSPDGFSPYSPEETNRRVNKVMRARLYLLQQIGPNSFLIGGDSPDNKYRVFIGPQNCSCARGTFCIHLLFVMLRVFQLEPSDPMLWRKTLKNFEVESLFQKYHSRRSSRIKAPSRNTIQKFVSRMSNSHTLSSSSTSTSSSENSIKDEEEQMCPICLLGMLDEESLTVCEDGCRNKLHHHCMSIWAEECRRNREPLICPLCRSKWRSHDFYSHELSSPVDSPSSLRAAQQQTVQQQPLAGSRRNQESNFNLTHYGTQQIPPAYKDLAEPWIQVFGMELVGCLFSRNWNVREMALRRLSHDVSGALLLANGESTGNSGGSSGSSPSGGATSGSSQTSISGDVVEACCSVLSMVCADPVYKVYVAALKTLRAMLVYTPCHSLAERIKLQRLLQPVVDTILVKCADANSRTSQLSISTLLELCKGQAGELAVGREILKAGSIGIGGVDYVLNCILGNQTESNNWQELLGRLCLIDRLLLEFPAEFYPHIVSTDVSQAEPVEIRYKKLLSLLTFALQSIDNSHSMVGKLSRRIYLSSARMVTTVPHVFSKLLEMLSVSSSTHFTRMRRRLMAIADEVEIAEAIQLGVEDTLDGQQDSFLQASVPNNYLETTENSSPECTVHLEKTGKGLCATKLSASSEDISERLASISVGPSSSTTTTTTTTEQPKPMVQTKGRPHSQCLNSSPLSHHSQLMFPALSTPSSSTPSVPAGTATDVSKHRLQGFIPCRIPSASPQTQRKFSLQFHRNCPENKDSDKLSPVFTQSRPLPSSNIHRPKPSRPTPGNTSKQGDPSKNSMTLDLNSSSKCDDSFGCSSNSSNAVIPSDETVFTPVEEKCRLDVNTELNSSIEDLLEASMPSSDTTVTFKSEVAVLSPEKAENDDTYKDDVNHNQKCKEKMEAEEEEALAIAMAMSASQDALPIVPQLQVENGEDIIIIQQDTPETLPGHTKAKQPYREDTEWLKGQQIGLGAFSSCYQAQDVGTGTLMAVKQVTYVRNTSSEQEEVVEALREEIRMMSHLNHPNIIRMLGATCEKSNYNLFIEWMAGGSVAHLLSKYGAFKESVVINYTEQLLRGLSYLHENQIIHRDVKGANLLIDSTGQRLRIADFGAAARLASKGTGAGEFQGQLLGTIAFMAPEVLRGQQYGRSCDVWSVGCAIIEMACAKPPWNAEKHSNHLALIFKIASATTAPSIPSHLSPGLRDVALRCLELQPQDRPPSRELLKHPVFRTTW
Method in brief: as §1

VRK2 = VRK2 (Homo sapiens, UniProt Q86Y07); conditions: VRK2, 1 μM; read-out: % control
Sequence of VRK2 (Q86Y07 whole entry): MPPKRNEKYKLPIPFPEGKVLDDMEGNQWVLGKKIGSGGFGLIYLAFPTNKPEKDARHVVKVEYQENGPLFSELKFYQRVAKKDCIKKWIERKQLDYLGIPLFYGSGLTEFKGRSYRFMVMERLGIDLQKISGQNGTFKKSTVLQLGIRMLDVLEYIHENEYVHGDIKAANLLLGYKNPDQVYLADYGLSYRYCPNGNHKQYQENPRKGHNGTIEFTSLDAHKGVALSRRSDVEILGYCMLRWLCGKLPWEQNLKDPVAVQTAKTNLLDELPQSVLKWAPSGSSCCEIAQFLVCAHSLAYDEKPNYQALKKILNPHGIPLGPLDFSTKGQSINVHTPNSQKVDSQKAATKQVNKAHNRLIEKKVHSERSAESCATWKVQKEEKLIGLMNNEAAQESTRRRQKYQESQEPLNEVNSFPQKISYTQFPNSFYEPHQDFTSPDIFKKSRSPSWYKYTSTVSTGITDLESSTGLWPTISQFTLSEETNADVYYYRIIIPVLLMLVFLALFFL
Method in brief: as §1

BRAF = target: T7, BRAF (Homo sapiens, UniProt P15056); conditions: read-out: % control
T7 construct: purchased KinomeScan®
T7 sequence (P15056 whole entry): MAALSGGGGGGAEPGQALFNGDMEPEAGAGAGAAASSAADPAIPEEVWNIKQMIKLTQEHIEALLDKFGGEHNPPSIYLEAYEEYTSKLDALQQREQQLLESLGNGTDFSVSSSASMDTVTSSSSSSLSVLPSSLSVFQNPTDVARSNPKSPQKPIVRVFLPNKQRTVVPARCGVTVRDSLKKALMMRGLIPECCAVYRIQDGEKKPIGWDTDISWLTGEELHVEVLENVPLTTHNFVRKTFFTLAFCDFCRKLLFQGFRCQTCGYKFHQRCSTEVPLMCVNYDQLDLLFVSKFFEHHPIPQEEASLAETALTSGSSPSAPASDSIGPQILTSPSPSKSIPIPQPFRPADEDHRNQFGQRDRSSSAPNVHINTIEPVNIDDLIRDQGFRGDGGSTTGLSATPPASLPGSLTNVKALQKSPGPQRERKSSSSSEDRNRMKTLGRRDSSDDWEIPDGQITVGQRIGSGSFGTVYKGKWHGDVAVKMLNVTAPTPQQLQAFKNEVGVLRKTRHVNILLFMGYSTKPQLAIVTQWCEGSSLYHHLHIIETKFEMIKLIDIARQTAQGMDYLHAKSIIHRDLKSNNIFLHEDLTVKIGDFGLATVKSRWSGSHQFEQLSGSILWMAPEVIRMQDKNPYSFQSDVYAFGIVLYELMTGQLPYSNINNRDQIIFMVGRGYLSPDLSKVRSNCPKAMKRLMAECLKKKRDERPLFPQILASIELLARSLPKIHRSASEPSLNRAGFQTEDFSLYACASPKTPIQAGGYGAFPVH
Method in brief: as §1

CDC2L2 = target: T8, CDC2L2 (Homo sapiens, UniProt Q9UQ88); conditions: CDC2L2, 1 μM; read-out: % control
T8 sequence (Q9UQ88 1-783): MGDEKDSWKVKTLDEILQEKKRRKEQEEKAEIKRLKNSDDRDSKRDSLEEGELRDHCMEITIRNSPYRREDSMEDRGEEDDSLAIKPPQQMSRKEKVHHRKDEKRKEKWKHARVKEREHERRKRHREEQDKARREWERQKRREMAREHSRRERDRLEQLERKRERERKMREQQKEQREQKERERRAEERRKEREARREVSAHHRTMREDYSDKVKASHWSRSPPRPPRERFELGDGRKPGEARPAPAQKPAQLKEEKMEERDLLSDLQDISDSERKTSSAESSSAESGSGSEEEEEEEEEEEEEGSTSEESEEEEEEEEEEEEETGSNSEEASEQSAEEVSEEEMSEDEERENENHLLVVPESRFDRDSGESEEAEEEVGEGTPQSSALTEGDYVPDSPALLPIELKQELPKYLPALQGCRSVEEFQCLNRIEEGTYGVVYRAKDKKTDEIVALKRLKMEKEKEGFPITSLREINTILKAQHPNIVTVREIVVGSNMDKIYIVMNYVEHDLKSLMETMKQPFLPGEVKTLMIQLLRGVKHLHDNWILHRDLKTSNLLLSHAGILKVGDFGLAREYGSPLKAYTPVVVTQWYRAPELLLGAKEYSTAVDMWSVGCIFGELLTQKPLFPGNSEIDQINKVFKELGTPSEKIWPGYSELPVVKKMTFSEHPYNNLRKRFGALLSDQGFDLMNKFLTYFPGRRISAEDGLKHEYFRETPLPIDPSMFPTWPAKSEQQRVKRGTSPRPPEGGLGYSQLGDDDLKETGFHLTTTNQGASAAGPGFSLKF
Method in brief: as §1

T1 sequence (Q9H2G2 whole entry): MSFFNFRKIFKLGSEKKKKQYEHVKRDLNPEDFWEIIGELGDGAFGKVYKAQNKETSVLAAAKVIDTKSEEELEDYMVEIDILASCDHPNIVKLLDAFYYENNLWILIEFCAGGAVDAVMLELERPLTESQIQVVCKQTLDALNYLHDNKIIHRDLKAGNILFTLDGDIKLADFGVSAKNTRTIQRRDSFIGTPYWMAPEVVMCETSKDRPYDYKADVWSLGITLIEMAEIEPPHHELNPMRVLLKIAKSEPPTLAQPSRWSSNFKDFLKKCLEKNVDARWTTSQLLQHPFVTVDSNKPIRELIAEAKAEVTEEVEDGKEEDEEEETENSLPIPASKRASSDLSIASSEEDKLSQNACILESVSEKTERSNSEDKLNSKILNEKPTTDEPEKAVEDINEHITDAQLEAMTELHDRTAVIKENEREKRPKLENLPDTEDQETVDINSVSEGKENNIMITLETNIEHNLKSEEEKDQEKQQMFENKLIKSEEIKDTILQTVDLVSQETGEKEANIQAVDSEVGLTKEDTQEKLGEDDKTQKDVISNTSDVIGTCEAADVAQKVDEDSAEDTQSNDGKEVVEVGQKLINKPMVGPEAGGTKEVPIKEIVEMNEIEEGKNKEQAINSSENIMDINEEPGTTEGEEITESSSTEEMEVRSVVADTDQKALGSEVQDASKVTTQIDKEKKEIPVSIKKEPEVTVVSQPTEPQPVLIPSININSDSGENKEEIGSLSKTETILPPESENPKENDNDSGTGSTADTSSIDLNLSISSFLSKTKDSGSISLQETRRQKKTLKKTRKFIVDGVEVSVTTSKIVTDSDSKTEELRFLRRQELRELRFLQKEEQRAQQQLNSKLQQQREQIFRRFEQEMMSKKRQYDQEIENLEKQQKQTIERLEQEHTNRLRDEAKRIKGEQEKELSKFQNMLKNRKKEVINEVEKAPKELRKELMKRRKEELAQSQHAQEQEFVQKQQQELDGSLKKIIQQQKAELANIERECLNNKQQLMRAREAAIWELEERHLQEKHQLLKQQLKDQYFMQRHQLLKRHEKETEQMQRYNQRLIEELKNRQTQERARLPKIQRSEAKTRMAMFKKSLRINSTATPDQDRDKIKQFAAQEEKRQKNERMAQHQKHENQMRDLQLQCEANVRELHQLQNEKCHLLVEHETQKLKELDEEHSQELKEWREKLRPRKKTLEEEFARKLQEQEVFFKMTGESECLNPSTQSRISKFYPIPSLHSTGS

Row | SMILES | remaining binding at 1 µM (SLK) [%] | remaining binding at 1 µM (PIM1) [%] | remaining binding at 1 µM (EGFR(L747-T751del, Sins)) [%] | remaining binding at 1 µM (MEK6) [%] | remaining binding at 1 µM (PIP5K2B) [%] | remaining binding at 1 µM (ULK3) [%] | remaining binding at 1 µM (SYK) [%] | remaining binding at 1 µM (MAP3K1) [%] | remaining binding at 1 µM (VRK2) [%] | remaining binding at 1 µM (BRAF) [%] | remaining binding at 1 µM (CDC2L2) [%]
1 | CNc1c(-c2cnn([C@H]3CCN(C(C)=O)C[C@@H]3F)c2)cnc2[nH]cc(Cl)c12 [Compound 77, 1-((3S,4S)-4-(4-(3-chloro-4-(methylamino)-1H-pyrrolo[2,3-b]pyridin-5-yl)-1H-pyrazol-1-yl)-3-fluoropiperidin-1-yl)ethan-1-one] | 86 | 95 | 88 | 60 | 3.4 | 5.5 | 100 | 56 | 66 | 91 | 91
2 | O=C(c1ccc(-c2cnc3[nH]cc(Cl)c3c2NC2CCCC2)cc1)N1CCC(N2CCOCC2)CC1 [Compound 101, (4-(3-chloro-4-(cyclopentylamino)-1H-pyrrolo[2,3-b]pyridin-5-yl)phenyl)(4-morpholinopiperidin-1-yl)methanone] | 78 | 95 | 100 | 95 | 12 | 92 | 100 | 100 | 100 | 84 | 92
3 | CNc1c(-c2ccc(C(=O)N3CCC(N4CCOCC4)CC3)cc2)cnc2[nH]cc(Cl)c12 [Compound 96, (4-(3-chloro-4-(methylamino)-1H-pyrrolo[2,3-b]pyridin-5-yl)phenyl)(4-morpholinopiperidin-1-yl)methanone] | 68 | 100 | 76 | 16 | 4.9 | 10 | 100 | 73 | 79 | 90 | 100

— patent US12275731B2, “Azaindole inhibitors of wild-type and mutant forms of LRRK2” (DANA-FARBER CANCER INSTITUTE, INC., priority 2018, dated 2025)
